The term Ki denotes a measure of affinity in units of concentration, obtained from inhibition or displacement.

HPK1, sequence (Q92918 whole entry T165E/S171E): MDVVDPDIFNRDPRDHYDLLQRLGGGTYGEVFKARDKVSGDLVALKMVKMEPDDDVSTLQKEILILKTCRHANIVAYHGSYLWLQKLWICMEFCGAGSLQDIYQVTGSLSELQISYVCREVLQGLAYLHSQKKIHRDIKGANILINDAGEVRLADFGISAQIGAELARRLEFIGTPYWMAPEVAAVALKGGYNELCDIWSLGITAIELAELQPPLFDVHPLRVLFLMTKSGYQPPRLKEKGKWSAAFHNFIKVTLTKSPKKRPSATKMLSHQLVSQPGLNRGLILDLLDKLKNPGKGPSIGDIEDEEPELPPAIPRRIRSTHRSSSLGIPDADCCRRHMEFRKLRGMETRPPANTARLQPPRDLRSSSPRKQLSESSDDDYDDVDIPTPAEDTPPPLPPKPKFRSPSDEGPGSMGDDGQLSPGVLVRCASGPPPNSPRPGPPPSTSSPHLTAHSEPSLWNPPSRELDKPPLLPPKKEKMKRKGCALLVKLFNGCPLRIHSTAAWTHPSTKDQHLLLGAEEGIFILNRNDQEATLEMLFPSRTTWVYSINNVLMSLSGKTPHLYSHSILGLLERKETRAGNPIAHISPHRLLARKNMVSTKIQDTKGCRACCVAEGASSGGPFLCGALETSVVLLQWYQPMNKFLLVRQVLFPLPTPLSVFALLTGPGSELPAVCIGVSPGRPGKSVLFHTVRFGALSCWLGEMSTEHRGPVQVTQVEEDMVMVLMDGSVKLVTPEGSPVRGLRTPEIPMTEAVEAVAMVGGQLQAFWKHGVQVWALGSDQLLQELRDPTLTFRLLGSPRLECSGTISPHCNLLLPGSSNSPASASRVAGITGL

For the test, the target named is HPK1 (Homo sapiens (Human), UniProt Q92918, S171E/T165E). The experiment in a line: HPK1-FL HTRF Enzymatic Assay (HTRF). It counts as biochemical. The settings on record: HPK full length T165E S171E 0.125 nM, ATP 1 mM, Biotin-SLP76 100 nM, read-out: HPK1 Ki (nM), H = HTRF. The protocol:
Exemplary compounds of Formula (I) were tested to assess compound inhibition of HPK-1. The Ki for each exemplary compound was determined
Example B1: HPK1-FL HTRF Enzymatic Assay (“HTRF”)
HPK-FL enzyme phosphorylates Biotin-SLP-76 substrate in the presence of ATP at 1 mM and varying concentrations of test compound. Product is detected by FRET using Eu-anti-pSLP76 Ab and SA-XL665. Also see www.cisbio.com/HTRF for additional HTRF technology information.
• Echo555 compound dispenser • Agilent Bravo • Perkin Elmer Envision Final Assay Conditions:
Materials: • Assay plate: White ProxiPlate 384 F (PerkinElmer cat #6008289) • Kinase: HPK full length double mutant • Substrate: Biotin-SLP76 • ATP: 100 mM ATP • BSG: 2% BSG • DMSO: DMSO (Sigma cat #34869-100ML) • Reaction Buffer: H2O/50 mM HEPES, pH 7.5/10 mM MgCl2/2 mM TCEP/0.01% Brij-35/0.01% BSG • Detection mix:Eu-anti-pSLP76/SA-XL665 (Cisbio, #610SAXAC) Assay Procedure Ki determination:
To a 384 well Proxiplate with 80 nL compound or DMSO spotted on was added 4 μl/well kinase mix. The mixture was preincubated for 30 minutes and then 4 μl/well substrate mix was added. The solution was incubated for 60 min and then 4 μl/well detection mix was added. The solution was incubated for another 60 min. The plates were then loaded onto a Perkin Elmer Envision and the TR-FRET signal was measured at 615 and 665 nm. A ratio of […] was used to calculate the % activity at each concentration of compound.
A general note: TR-FRET usually uses a lanthanide donor and a delayed reading to cut background.
`CNCc1cc(-c2ccc3cnc(Nc4cc5n(n4)CC(=O)N(C)CC5)cc3c2)c(F)cc1C` [Compound 220, 2-((6-(2-fluoro-4-methyl-5-((methylamino)methyl)phenyl)isoquinolin-3-yl)amino)-6-methyl-5,6-dihydro-4H-pyrazolo[1,5-d][1,4]diazepin-7(8H)-one]: the Ki is 176 nM.
In the case of `Cc1c(-c2cc3cc(Nc4cc5n(n4)CC(=O)N(C)CC54CC4)ncc3cc2F)cnc2c1NCC[C@H]2O` (single isomer, unassigned) [Compound 205a], the Ki amounted to 0.013 nM.
Take `Cc1c(-c2cc3cc(Nc4cc5n(n4)CC(=O)N(C)OC5)ncc3cc2F)cnc2c1NCCO2` [Compound 244, 2-((7-fluoro-6-(8-methyl-2,3-dihydro-1H-pyrido[2,3-b][1,4]oxazin-7-yl)isoquinolin-3-yl)amino)-6-methyl-4H,6H-pyrazolo[1,5-e][1,2,5]oxadiazepin-7(8H)-one]: the Ki came to 0.013 nM.
Consider `Cc1c(N)cncc1-c1cc2cc(Nc3cc4n(n3)CC(=O)N(CCN3CC(F)C3)CC4)ncc2cc1F` [Compound 164, 2-((6-(5-amino-4-methylpyridin-3-yl)-7-fluoroisoquinolin-3-yl)amino)-6-(2-(3-fluoroazetidin-1-yl)ethyl)-5,6-dihydro-4H-pyrazolo[1,5-d][1,4]diazepin-7(8H)-one], for which the inhibitory constant (Ki) stood at 0.013 nM.
Take `Cc1c(-c2cc3cc(Nc4cc5n(n4)CC(=O)N(C)CC5)ncc3cc2F)cnc2c1NCC[C@@H]2O` (single isomer, unassigned) [Compound 236a]: the inhibitory constant (Ki) amounted to 0.076 nM.
On to `Cc1c(N)cncc1-c1cc2cc(Nc3cc4n(n3)CC(=O)N(CCO)CC4)ncc2cc1F` [Compound 159, 2-((6-(5-amino-4-methylpyridin-3-yl)-7-fluoroisoquinolin-3-yl)amino)-6-(2-hydroxyethyl)-5,6-dihydro-4H-pyrazolo[1,5-d][1,4]diazepin-7(8H)-one], for which the Ki is 0.015 nM.
For the molecule `Cc1c(N)cncc1-c1cc2cc(Nc3cc4n(n3)CC(=O)N(C)CC4(F)F)ncc2cc1F` [Compound 127, 2-[[6-(5-amino-4-methyl-3-pyridyl)-7-fluoro-3-isoquinolyl]amino]-4,4-difluoro-6-methyl-5,8-dihydropyrazolo[1,5-d][1,4]diazepin-7-one], the Ki came out at 0.04 nM.
Under `Cc1c(-c2cc3cc(Nc4cc5n(n4)CS(=O)(=O)N(C)C5)ncc3cc2F)cnc2c1NCC[C@H]2O` (single isomer, unassigned) [Compound 242b] stands 1.7 nM; under `Cc1c(-c2cc3cc(Nc4cc5n(n4)CC(=O)N(C)CC54CC4)ncc3cc2F)cnc2c1NCC[C@@H]2O` (single isomer, unassigned) [Compound 205b], 0.013 nM; under `Cc1c(-c2cc3cc(Nc4cc5n(n4)CC(=O)N(C)CC5)ncc3cc2F)cnc2c1[C@@H](F)CCO2` (single isomer, unassigned) [Compound 235a], 2.1 nM.
Turning to `Cc1c(N)cncc1-c1cc2cc(Nc3cc4n(n3)CC(=O)N([C@@H](C)CO)CC4)ncc2cc1F` (single isomer, unassigned) [Compound 149a], the Ki is 0.043 nM.
Consider `Cc1c(-c2cc3cc(Nc4cc5n(n4)CC(=O)N(C)CC5)ncc3cc2F)cnc2c1NCCC2(F)F` [Compound 208, 2-((6-(8,8-difluoro-4-methyl-5,6,7,8-tetrahydro-1,5-naphthyridin-3-yl)-7-fluoroisoquinolin-3-yl)amino)-6-methyl-5,6-dihydro-4H-pyrazolo[1,5-d][1,4]diazepin-7(8H)-one], for which the Ki was 0.02 nM.
Under `CNCc1cncc(-c2cc3cc(Nc4cc5n(n4)CC(=O)N(C)CC5)ncc3cc2F)c1C` [Compound 210, 2-((7-fluoro-6-(4-methyl-5-((methylamino)methyl)pyridin-3-yl)isoquinolin-3-yl)amino)-6-methyl-5,6-dihydro-4H-pyrazolo[1,5-d][1,4]diazepin-7(8H)-one] stands 37 nM; under `Cc1cc(CN)ncc1-c1cc2cc(Nc3cc4n(n3)CC(=O)N(C)CC4)ncc2cc1F` [Compound 212, 2-((6-(6-(aminomethyl)-4-methylpyridin-3-yl)-7-fluoroisoquinolin-3-yl)amino)-6-methyl-5,6-dihydro-4H-pyrazolo[1,5-d][1,4]diazepin-7(8H)-one], 50 nM; under `Cc1c(-c2cc3cc(Nc4cc5n(n4)CC(=O)N(C)CC5)ncc3cc2F)cnc2c1NCC(C)(C)[C@H]2O` (single isomer, unassigned) [Compound 241a], 0.11 nM.
For `CN[C@@H]1CCc2c(-c3cc4cc(Nc5cc6n(n5)CC(=O)N(C)CC6)ncc4cc3F)cncc21` (single isomer, unassigned) [Compound 228a], the Ki came to 8.3 nM.
Turning to `Cc1c(N)cncc1-c1cc2cc(Nc3cc4n(n3)CC(=O)N(C(C)(C)C)CC4F)ncc2cc1F` (single isomer, unassigned) [Compound 167b], the inhibition constant (Ki) was 0.013 nM.
Take `CO[C@@H]1CCNc2c1ncc(-c1cc(F)c3cnc(Nc4cc5n(n4)CC(=O)N(C)CC5)cc3c1)c2C` (single isomer, unassigned) [Compound 234b]: the Ki came to 2.1 nM.
`Cc1c(N)cnnc1-c1cc2cc(Nc3cc4n(n3)CC(=O)N(C)CC4)ncc2cc1F` [Compound 216, 2-((6-(5-amino-4-methylpyridazin-3-yl)-7-fluoroisoquinolin-3-yl)amino)-6-methyl-5,6-dihydro-4H-pyrazolo[1,5-d][1,4]diazepin-7(8H)-one]: the Ki is 2.3 nM.
As to `Cc1c(N)cncc1-c1cc2cc(Nc3cc4n(n3)CC(=O)N(C(C)C)C[C@H]4O)ncc2cc1F` (single isomer, unassigned) [Compound 153a], the Ki was determined as 0.064 nM.
For the molecule `Cc1c(-c2cc3cc(Nc4cc5n(n4)CC(=O)N(C)CC5)ncc3cc2F)cnc2c1NCN(C)C2=O` [Compound 187, 7-(7-fluoro-3-((6-methyl-7-oxo-5,6,7,8-tetrahydro-4H-pyrazolo[1,5-d][1,4]diazepin-2-yl)amino)isoquinolin-6-yl)-3,8-dimethyl-2,3-dihydropyrido[3,2-d]pyrimidin-4(1H)-one], the inhibition constant (Ki) is 0.25 nM.
In the case of `Cc1c(CS(C)(=O)=O)cncc1-c1cc2cc(Nc3cc4n(n3)CC(=O)N(C)CC4)ncc2cc1F` [Compound 204, 2-((7-fluoro-6-(4-methyl-5-((methylsulfonyl)methyl)pyridin-3-yl)isoquinolin-3-yl)amino)-6-methyl-5,6-dihydro-4H-pyrazolo[1,5-d][1,4]diazepin-7(8H)-one], the Ki came to 0.18 nM.
`CC(=O)Nc1cncc(-c2cc3cc(Nc4cc5n(n4)CC(=O)N(C)CC5)ncc3cc2F)c1C` [Compound 171, N-(5-(7-fluoro-3-((6-methyl-7-oxo-5,6,7,8-tetrahydro-4H-pyrazolo[1,5-d][1,4]diazepin-2-yl)amino)isoquinolin-6-yl)-4-methylpyridin-3-yl)acetamide]: the Ki stood at 1.78 nM.
For the molecule `Cc1c(N)cncc1-c1cc2cc(Nc3cc4n(n3)Cc3ncc(C)n3CC4)ncc2cc1F` [Compound 163, N-(6-(5-amino-4-methylpyridin-3-yl)-7-fluoroisoquinolin-3-yl)-3-methyl-5,6-dihydro-11H-imidazo[1,2-a]pyrazolo[1,5-d][1,4]diazepin-8-amine], the Ki was 0.013 nM.
For `Cc1c[nH]c2c(C)c(-c3cc4cc(Nc5cc6n(n5)CC(=O)N(C)CC6)ncc4cc3F)cnc12` [Compound 195, 2-((6-(3,7-dimethyl-1H-pyrrolo[3,2-b]pyridin-6-yl)-7-fluoroisoquinolin-3-yl)amino)-6-methyl-5,6-dihydro-4H-pyrazolo[1,5-d] [1,4]diazepin-7(8H)-one], the Ki was 0.26 nM.
Under `COc1cc(C)c(-c2cc3cc(Nc4cc5n(n4)CC(=O)N(C)CC5)ncc3cc2F)cn1` [Compound 137, 2-((7-fluoro-6-(6-methoxy-4-methylpyridin-3-yl)isoquinolin-3-yl)amino)-6-methyl-5,6-dihydro-4H-pyrazolo[1,5-d][1,4]diazepin-7(8H)-one] stands 2.2 nM; under `Cc1c(N)cncc1-c1cc2cc(Nc3cc4n(n3)CC(=O)N(C)CC4(C)O)ncc2cc1F` (single isomer, unassigned) [Compound 185b], 0.037 nM.
For `Cc1c(N)cncc1-c1cc2cc(Nc3cc4n(n3)CC3=NOC(C)(C)N3CC4)ncc2cc1F` [Compound 166, N-(6-(5-amino-4-methylpyridin-3-yl)-7-fluoroisoquinolin-3-yl)-3,3-dimethyl-5,6-dihydro-3H,11H-[1,2,4]oxadiazolo[4,3-a]pyrazolo[1,5-d][1,4]diazepin-8-amine] the value was 0.12 nM.
For the molecule `Cc1c(N)cncc1-c1cc2cc(Nc3cc4n(n3)CC(=O)N(CC(C)(C)O)CC4)ncc2cc1F` [Compound 158, 2-((6-(5-amino-4-methylpyridin-3-yl)-7-fluoroisoquinolin-3-yl)amino)-6-(2-hydroxy-2-methylpropyl)-5,6-dihydro-4H-pyrazolo[1,5-d][1,4]diazepin-7(8H)-one], the Ki worked out at 0.023 nM.

The values are drawn from patent US12378249B2, “Isoquinoline compounds and uses thereof” (Genentech, Inc., priority 2018, dated 2025).
